Literature values in patent US20120277147A1, “PREVENTION OF HYPOGLYCAEMIA IN DIABETES MELLITUS TYPE 2 PATIENTS” (priority 2011, published 2012).

Test system: patients with type 2 diabetes treated with metformin and a sulfonylurea
Details: 30 week; patients unable to achieve adequate glycemic control with combined metformin-sulfonylurea therapy

In the case of “Exendin-4: native exendin peptide, SEQ ID NO: 2 (39 AS), which can lower blood glucose concentration”, the “Effect on HbA1c” value is listed as “significantly reduced HbA1c”.
